According to US11938136B2, “Compositions for treating spinal muscular atrophy” (Hoffmann-La Roche Inc., priority 2015, dated 2024):
≈ marks a conversion by molar mass, not a printed value. Like-named read-outs stand apart in the source and are kept apart here.

Experiments:
[1] = Stability of olesoxime (solid state, oral suspension in sesame oil); assay type: physicochemical; settings: 25° C./60% RH
Method: Examples of compositions comprising olexosime are described in US2010099652A1. […] Olesoxime has low aqueous solubility (less than 5 μg/ml) across the physiological pH range. It is freely soluble or soluble in a range of non-aqueous solvents.
7.5 g crystalline olesoxime powder (particle size distribution with d90 value 70-90 μm) was suspended in 75 ml (61.6 g) sesame oil (refined) as vehicle through agitation (e.g. shaking) to yield a homogeneous suspension (final olesoxime concentration 100 mg/ml).

[2] = test system: patients with Types 2 and 3 SMA; settings: two-year treatment period, compared with approximately two-point decline in the placebo arm; cited from earlier work
[3] = test system: adult mice; settings: cited from earlier work
[4] = Solubility; assay type: physicochemical
[5] = test system: neonatal rats; settings: cited from earlier work
[6] = test system: full length SMN2 minigene mRNA; test: SMN2 minigene mRNA splicing RT-qPCR assay in cultured cells; assay type: cell-based, human; settings: Homo sapiens, HEK293-H; HEK293H cells stably transfected with SMN2-A minigene, 24 hours, 7-point concentration curve; read-out: EC1.5x minigene
Text: The term “EC1.5x concentration for production of full length SMN2 minigene mRNA” (or “EC1.5x minigene”) is defined as that concentration of test compound that is effective in increasing the amount of full length SMN2 minigene mRNA to a level 1.5-fold greater relative to that in vehicle-treated cells.
The reverse transcription-quantitative PCR-based (RT-qPCR) assay is used to quantify the level of the full length SMN2 minigene (referred to herein by the term “FL SMN2mini”) mRNA containing SMN2 exon 7 in a HEK293H cell line stably transfected with said minigene and treated with a test compound. Materials used and respective sources are listed below in Table 1.
The SMN2-A minigene construct was prepared as described in International Patent Application WO2009/151546A1 page 145 paragraph [00400] to page 147 paragraph [00412](incl. FIG. 1 and FIG. 3 therein).
HEK293H cells stably transfected with the SMN2-A minigene construct (10,000 cells/well) are seeded in 200 μL of cell culture medium (DMEM plus 10% FBS, with 200 μg/mL hygromycin) in 96-well flat-bottom plates and the plate is immediately swirled to ensure proper dispersal of cells and the formation of an even monolayer of cells. Cells are allowed to attach for 6 hours. Test compounds are serially diluted 3.16-fold in 100% DMSO to generate a 7-point concentration curve. A solution of test compound (1 μL, 200× in DMSO) is added to each cell-containing well and the plate is incubated for 24 hours in a cell culture incubator (37° C., 5% CO2, 100% relative humidity). 2 replicates are prepared for each test compound concentration. The cells are then lysed in the Cells-To-Ct lysis buffer and the lysate is stored at −80° C.
Full length SMN2-A minigene and GAPDH mRNA are quantified using the primers and probes referenced in WO2014/209841A2 on page 80 in Table 1. Primer SMN Forward A (SEQ ID NO.1) hybridizes to a nucleotide sequence in exon 7 (nucleotide 22 to nucleotide 40), primer SMN Reverse A (SEQ ID NO.2) hybridizes to a nucleotide sequence in the coding sequence of Firefly luciferase, SMN Probe A (SEQ ID NO.3) hybridizes to a nucleotide sequence in exon 7 (nucleotide 50 to nucleotide 54) and exon 8 (nucleotide 1 to nucleotide 21). The combination of these three oligonucleotides detects only SMN1 or SMN2 minigenes (RT-qPCR) and will not detect endogenous SMN1 or SMN2 genes.
The SMN forward and reverse primers are used at final concentrations of 0.4 μM. The SMN probe is used at a final concentration of 0.15 μM. The GAPDH primers are used at final concentrations of 0.2 μM and the probe at 0.15 μM.
The SMN2-minigene GAPDH mix (15 μL total volume) is prepared by combining 7.5 μL of 2×RT-PCR buffer, 0.4 μL of 25×RT-PCR enzyme mix, 0.75 μL of 20×GAPDH primer-probe mix, 4.0075 μL of water, 2 μL of 10-fold diluted cell lysate, 0.06 μL of 100 μM SMN forward primer, 0.06 μL of 100 μM SMN reverse primer, and 0.225 μL of 100 μM SMN probe.
PCR is carried out at the following temperatures for the indicated time: Step 1: 48° C. (15 min); Step 2: 95° C. (10 min); Step 3: 95° C. (15 sec); Step 4: 60° C. (1 min); then repeat Steps 3 and 4 for a total of 40 cycles.
Each reaction mixture contains both SMN2-A minigene and GAPDH primers/probe sets (multiplex design), allowing simultaneous measurement of the levels of two transcripts.
The increase in the abundance of the FL SMN2mini mRNA relative to that in cells treated with vehicle control is determined from real-time PCR data using a modified ΔΔCt method (as described in Livak and Schmittgen, Methods, 2001, 25:402-8). The amplification efficiency E is calculated from the slope of the amplification curve for FL SMN2mini and GAPDH individually. The abundance of FL SMN2mini and GAPDH mRNA are then calculated as (1+E)^−Ct, where Ct is the threshold value for each amplicon. The abundance of FL SMN2mini mRNA is normalized to GAPDH mRNA abundance. […]

[7] = test system: splicing events and expression levels of genes; settings: Palacino et al, Nat Chem Biol. 2015, cited from earlier work

SMILES | EC (1.5-fold increase) [6] [µM] | other results
CC(C)CCC[C@@H](C)[C@H]1CC[C@H]2[C@@H]3CCC4=C/C(=N/O)CC[C@]4(C)[C@H]3CC[C@]12C (stereo in doubt) [Olesoxime, Cholest-4-en-3-one oxime] | – | stable in the solid state [1]: > 36 months; motor function (motor function measure, MFM) [2]: maintenance of motor function; effect on nerve regeneration after nerve crush [3]: promotes nerve regeneration; solubility ([4]; aqueous medium, aqueous buffer, across the physiological pH range, read-out: aqueous solubility): < 0.005 mg/mL; solubility ([4]; sesame oil, oil or lipid, read-out: solubility in sesame oil): ~35 mg/mL (≈ 87.6 mM); effect on motor neurons after nerve lesion [5]: rescues motor neurons from cell death
Cc1cn2nc(-c3cc(=O)n4cc(N5CCN6CCC[C@@]6(C)C5)ccc4n3)cc(C)c2n1 [Example 5, 7-[(8aS)-8a-methyl-1,3,4,6,7,8-hexahydropyrrolo[1,2-a]pyrazin-2-yl]-2-(2,8-dimethylimidazo[1,2-b]pyridazin-6-yl)pyrido[1,2-a]pyrimidin-4-one] | 0.0006 | –
Cc1cn2nc(-c3cc(=O)n4cc(N5CCN[C@@H](C)C5)ccc4n3)cc(C)c2n1 [Example 8, 2-(2,8-dimethylimidazo[1,2-b]pyridazin-6-yl)-7-[(3S)-3-methylpiperazin-1-yl]pyrido[1,2-a]pyrimidin-4-one] | 0.0003 | –
Cc1cn2nc(-c3cc(=O)n4cc(N5CCN[C@H](C)C5)ccc4n3)cc(C)c2n1 [Example 9, 2-(2,8-dimethylimidazo[1,2-b]pyridazin-6-yl)-7-[(3R)-3-methylpiperazin-1-yl]pyrido[1,2-a]pyrimidin-4-one] | 0.0001 | –
Cc1cn2nc(-c3cc(=O)n4cc(N5CCCNCC5)ccc4n3)ccc2n1 [Example 13, 7-(1,4-diazepan-1-yl)-2-(2-methylimidazo[1,2-b]pyridazin-6-yl)pyrido[1,2-a]pyrimidin-4-one] | 0.005 | –
Cc1cn2nc(-c3cc(=O)n4cc(N5CCN6CCC[C@H]6C5)ccc4n3)ccc2n1 [Example 15, 7-[(8aS)-3,4,6,7,8,8a-hexahydro-1H-pyrrolo[1,2-a]pyrazin-2-yl]-2-(2-methylimidazo[1,2-b]pyridazin-6-yl)pyrido[1,2-a]pyrimidin-4-one] | 0.004 | –
Cc1cn2nc(-c3cc(=O)n4cc(N5CCNC(C)(C)C5)ccc4n3)cc(C)c2n1 [Example 22, 2-(2,8-dimethylimidazo[1,2-b]pyridazin-6-yl)-7-(3,3-dimethylpiperazin-1-yl)pyrido[1,2-a]pyrimidin-4-one] | 0.0009 | –
Cc1cn2nc(-c3cc(=O)n4cc(N5CCN[C@@H](C)C5)cc(C)c4n3)cc(C)c2n1 [Example 24, 2-(2,8-dimethylimidazo[1,2-b]pyridazin-6-yl)-9-methyl-7-[(3S)-3-methylpiperazin-1-yl]pyrido[1,2-a]pyrimidin-4-one] | 0.0004 | –
Cc1cn2nc(-c3cc(=O)n4cc(N5CCN[C@H](C)C5)cc(C)c4n3)cc(C)c2n1 [Example 25, 2-(2,8-dimethylimidazo[1,2-b]pyridazin-6-yl)-9-methyl-7-[(3R)-3-methylpiperazin-1-yl]pyrido[1,2-a]pyrimidin-4-one] | 0.0005 | –
Cc1cn2nc(-c3cc(=O)n4cc(N5CCNC6(CC6)C5)cc(C)c4n3)cc(C)c2n1 [Example 28, 7-(4,7-diazaspiro[2.5]octan-7-yl)-2-(2,8-dimethylimidazo[1,2-b]pyridazin-6-yl)-9-methyl-pyrido[1,2-a]pyrimidin-4-one] | 0.005 | –
Cc1cn2nc(-c3cc(=O)n4cc(N5C[C@H](C)N[C@@H](C)C5)ccc4n3)cc(C)c2n1 [Example 29, 2-(2,8-dimethylimidazo[1,2-b]pyridazin-6-yl)-7-[(3S,5S)-3,5-dimethylpiperazin-1-yl]pyrido[1,2-a]pyrimidin-4-one] | 0.0003 | –
Cc1cn2nc(-c3cc(=O)n4cc(N5CC[C@H](N6CCCC6)C5)ccc4n3)cc(C)c2n1 [Example 30, 2-(2,8-dimethylimidazo[1,2-b]pyridazin-6-yl)-7-[(3S)-3-pyrrolidin-1-ylpyrrolidin-1-yl]pyrido[1,2-a]pyrimidin-4-one] | 0.003 | –
Cc1cn2nc(-c3cc(=O)n4cc(N5CCN[C@@H](C)C5)cc(C)c4n3)ccc2n1 [Example 33, 9-methyl-2-(2-methylimidazo[1,2-b]pyridazin-6-yl)-7-[(3S)-3-methylpiperazin-1-yl]pyrido[1,2-a]pyrimidin-4-one] | 0.0005 | –
Cc1cn2nc(-c3cc(=O)n4cc(N5CCN[C@H](C)C5)cc(C)c4n3)ccc2n1 [Example 34, 9-methyl-2-(2-methylimidazo[1,2-b]pyridazin-6-yl)-7-[(3R)-3-methylpiperazin-1-yl]pyrido[1,2-a]pyrimidin-4-one] | 0.0009 | –
Cc1cn2nc(-c3cc(=O)n4cc(N5CCNC(C)(C)C5)cc(C)c4n3)ccc2n1 [Example 36, 7-(3,3-dimethylpiperazin-1-yl)-9-methyl-2-(2-methylimidazo[1,2-b]pyridazin-6-yl)pyrido[1,2-a]pyrimidin-4-one] | 0.005 | –
Cc1cn2nc(-c3cc(=O)n4cc(N5C[C@H](C)N[C@@H](C)C5)cc(C)c4n3)ccc2n1 [Example 38, 7-[(3S,5S)-3,5-dimethylpiperazin-1-yl]-9-methyl-2-(2-methylimidazo[1,2-b]pyridazin-6-yl)pyrido[1,2-a]pyrimidin-4-one] | 0.0003 | –
CC[C@@H]1CN(c2ccc3nc(-c4ccc5nc(C)cn5n4)cc(=O)n3c2)CCN1 [Example 39, 7-[(3R)-3-ethylpiperazin-1-yl]-2-(2-methylimidazo[1,2-b]pyridazin-6-yl)pyrido[1,2-a]pyrimidin-4-one] | 0.0009 | –
CC1(C)CC(Oc2ccc(-c3ccc(-c4cn[nH]c4)cc3O)nn2)CC(C)(C)N1 [NVS-SM1] | – | candidate events where splicing changed in response to treatment [7]: 39; number of genes changed at greater than ±2-fold (p<0.05) ([7]; expression level): 175
